14 molecules from ChEMBL document CHEMBL1130303, “Evaluation of piperidinoethoxy moiety as an antiestrogenic substituent in non-steroidal anti-estrogens: Fertility regulation” (1997) can be followed below.

Assay [1] has as its target Estrogen receptor (Rattus norvegicus) (UniProt P06211+Q62986). Kind of assay: Relative Binding Affinity (RBA) for estrogen receptor in ovariectomized rats. The class given is protein assay.
Assay [2] is filed under the species Rattus norvegicus. Kind of assay: Antifertility activity at maximal effective dose in adult female rat in an antiestrogen assay. The class given is functional.
Assay [3] is filed under the species Rattus norvegicus. Kind of assay: Antifertility activity at maximal effective dose in adult female rat in an antiestrogen assay; Inactive. The class given is functional, organism-based.
Assay [4] relates to Rattus norvegicus. Kind of assay: Antifertility activity at maximal effective dose in adult female rat in an antiestrogen assay at 10 mg/kg. The class given is functional.
Assay [5] has as its system Rattus norvegicus. Kind of assay: Antifertility activity at maximal effective dose in adult female rat in an antiestrogen assay; Inactive at 10 mg/kg dose. The class given is functional, organism-based. The arrangement: dose 10 mg/kg.
The subject of assay [6] is Rattus norvegicus. Kind of assay: Antifertility activity at maximal effective dose in adult female rat in an antiestrogen assay; Inactive at 5 mg/kg dose. Set-up: dose 5 mg/kg. The class given is functional, organism-based.

Active and inactive are the calls of the source. No cut-off for these calls is given here.

For the molecule `COc1ccc2c(c1)OC(C)(C)[C@@H](c1ccccc1)[C@@H]2c1ccc(OCCN2CCCC2)cc1` [LEVORMELOXIFENE], the relative binding affinity (RBA) in assay [1] worked out at 5.24. Further, the MED100 in assay [2] amounted to 0.25 mg/kg. `CC1(C)Oc2cc(O)ccc2[C@@H](c2ccc(OCCN3CCCCC3)cc2)[C@H]1c1ccccc1`: in assay [3], the MED100 result was “inactive”. The same measure, in the same setting: as for `CC1(C)Oc2cc(O)ccc2[C@@H](c2ccc(OCCN3CCCC3)cc2)[C@H]1c1ccccc1`, the entry is “inactive”. Regarding `COc1ccc2c(c1)OC(C)(C)[C@H](c1ccccc1)[C@@H]2c1ccc(OCCN2CCCCC2)cc1`, in assay [4], the Activity came to 90%.

Molecule `COc1ccc2c(c1)OC(C)(C)C(c1ccccc1)=C2c1ccc(OCCN2CCCC2)cc1` gave a relative binding affinity (RBA) in assay [1] of 0.86. The same molecule came in with an MED100 in assay [2] of 5 mg/kg.

`COc1ccc2c(c1)OCC(c1ccccc1)C2c1ccc(OCCN2CCCC2)cc1` (stereo not given) displayed a relative binding affinity (RBA) in assay [1] of 7.35. The MED100 in assay [2] worked out at 0.1 mg/kg. Molecule `COc1ccc2c(c1)OC(C)(C)[C@H](c1ccccc1)[C@@H]2c1ccc(OCCN2CCCC2)cc1` registered a relative binding affinity (RBA) in assay [1] of 0.16. The MED100 result in assay [5] is “inactive”. With `CC1(C)Oc2cc(O)ccc2C(c2ccc(OCCN3CCCCC3)cc2)=C1c1ccccc1`, in assay [1], the relative binding affinity (RBA) was 2.11. Further, the MED100 result in assay [6] was “inactive”. Turning to `CC1(C)Oc2cc(O)ccc2C(c2ccc(OCCN3CCCC3)cc2)=C1c1ccccc1`, the relative binding affinity (RBA) in assay [1] was determined as 9.2. For the same molecule, in assay [2], the MED100 came to 15 mg/kg. The molecule `CC1(C)Oc2cc(O)ccc2[C@@H](c2ccc(OCCN3CCCC3)cc2)[C@@H]1c1ccccc1` came in with a relative binding affinity (RBA) in assay [1] of 112. This molecule also showed an MED100 in assay [2] of 0.25 mg/kg. The matching figures for `CC1(C)Oc2cc(O)ccc2[C@@H](c2ccc(OCCN3CCCCC3)cc2)[C@@H]1c1ccccc1`: 50.1 and 0.2 mg/kg. The matching figures for `COc1ccc2c(c1)OC(C)(C)[C@@H](c1ccccc1)[C@@H]2c1ccc(OCCN2CCCCC2)cc1`: 3.77 and 0.1 mg/kg.

Regarding `COc1ccc2c(c1)OC(C)(C)C(c1ccccc1)=C2c1ccc(OCCN2CCCCC2)cc1`, in assay [1], the relative binding affinity (RBA) came out at 0.53. Also, the MED100 in assay [2] came out at 10 mg/kg.

Turning to `COc1ccc2c(c1)OCC(c1ccccc1)C2c1ccc(OCCN2CCCCC2)cc1` (stereo not given), in assay [1], the relative binding affinity (RBA) amounted to 1.45. Further, the MED100 in assay [2] worked out at 0.25 mg/kg.
